Tested on: Plasmodium berghei
Assay: Luciferase/luciferin-expressing antifolate-resistant parasites were used to infect a culture of HepG2 cells that were pre-incubated with compounds. Infected hepatocytes emit light due to the luciferase reaction. Assay results are presented as the percent inhibition of light emission compared to control. […]
Format: functional
Settings: sporozoite; for IC90: read-out: LUCIFERASE INFECTION ASSAY - IC90
[1] = read-out: LUCIFERASE INFECTION ASSAY - IC50

SMILES | IC50 [1] [µM] | IC90 [µM] | also measured
N#Cc1ccc(C=C(C(=O)NCc2ccccc2)C(=O)NCc2ccccc2)cc1 | > 10 | > 10 | –
CCOc1ccc(S(=O)(=O)N2CCCCC2)cc1NC(=O)C1CC=CCC1 (configuration not stated) | > 10 | > 10 | –
COc1cc(-c2cnc3cnc(-c4ccccc4C)cn23)ccc1O | – | 5.32 | IC50 (FFLUC_HILL_SLOPE 9.6, FFLUC_R_SQUARED 0.0922, HEPG2TOX_HILL_SLOPE 3.65, HEPG2TOX_R_SQUARED 0.847, PBLUC_HILL_SLOPE 7.45, PBLUC_R_SQUARED 0.397, read-out: LUCIFERASE INFECTION ASSAY - IC50): 3.96 µM
CSc1ccc(N2CC(C(=O)N(C)C(C)c3cccc([N+](=O)[O-])c3)CC2=O)cc1 (configuration not stated) | > 10 | > 10 | –
N#C/C(=C(\Oc1ccccc1)C(F)(F)F)c1ccccc1 | – | 10.9 | IC50 (HEPG2TOX_HILL_SLOPE 4.45, HEPG2TOX_R_SQUARED 0.985, PBLUC_HILL_SLOPE 11.8, PBLUC_R_SQUARED 0.682, read-out: LUCIFERASE INFECTION ASSAY - IC50): 9.07 µM
Cc1ccc(Cn2nc(C)c(/C=N/NC(=O)c3ccccc3NS(=O)(=O)c3cccs3)c2C)cc1 | > 10 | > 10 | –
CCCCNC(=O)c1c(NC(=O)c2ccc(F)cc2)nc2ccccn12 | – | 3.43 | IC50 (FFLUC_HILL_SLOPE 20.6, FFLUC_R_SQUARED 0.0581, HEPG2TOX_HILL_SLOPE 2.28, HEPG2TOX_R_SQUARED 0.75, PBLUC_HILL_SLOPE 12.8, PBLUC_R_SQUARED 0.452, read-out: LUCIFERASE INFECTION ASSAY - IC50): 2.88 µM
Cc1cc(C)cc(C(=O)N(C)CC(=O)N2CCCC2)c1 | – | > 10 | IC50 (FFLUC_HILL_SLOPE 0.201, FFLUC_R_SQUARED 0.0577, read-out: LUCIFERASE INFECTION ASSAY - IC50): > 10 µM
COc1cc2c(cc1OC)C(c1ccccc1)N(CC(=O)Nc1c(C)cc(C)cc1Cl)CC2 (configuration not stated) | – | 9.2 | IC50 (HEPG2TOX_HILL_SLOPE 7.81, HEPG2TOX_R_SQUARED 0.408, PBLUC_HILL_SLOPE 9.86, PBLUC_R_SQUARED 0.196, read-out: LUCIFERASE INFECTION ASSAY - IC50): 7.36 µM
CC(C)(C)c1cc(C(=O)Nc2nc(C(N)c3ccccc3Cl)cs2)n(Cc2ccccc2)n1 (configuration not stated) | – | 6.37 | IC50 (PBLUC_HILL_SLOPE 22.9, PBLUC_R_SQUARED 0.71, read-out: LUCIFERASE INFECTION ASSAY - IC50): 5.79 µM
FC(F)(F)c1nc(N2CCN(c3ccncc3)CC2)c2ccccc2n1 | – | > 10 | IC50 (PBLUC_HILL_SLOPE 1.73, PBLUC_R_SQUARED 0.515, read-out: LUCIFERASE INFECTION ASSAY - IC50): 4.07 µM
CCOc1ccccc1C(=O)N(C)Cc1nc(-c2ccccc2)no1 | > 9.78 | > 9.78 | –
COC(=O)c1sc(N)c(C(=O)OC)c1COC(=O)/C=C/c1ccc(OC(F)F)cc1 | – | > 10 | IC50 (FFLUC_HILL_SLOPE 15.7, FFLUC_R_SQUARED 0.211, read-out: LUCIFERASE INFECTION ASSAY - IC50): > 10 µM
FC(F)Oc1ccc(NC(=S)NCC23CC4CC(CC(C4)C2)C3)cc1 | – | 9.77 | IC50 (HEPG2TOX_HILL_SLOPE 8.2, HEPG2TOX_R_SQUARED 0.229, PBLUC_HILL_SLOPE 14.4, PBLUC_R_SQUARED 0.791, read-out: LUCIFERASE INFECTION ASSAY - IC50): 8.38 µM
COc1ccc(NC(=O)c2cc(S(N)(=O)=O)ccc2Br)cc1Cc1ccccc1 | > 10 | > 10 | –
COc1cccc(/C=C/C(=O)NC2CCCc3ccccc32)c1OC(F)F (configuration not stated) | – | > 10 | IC50 (PBLUC_HILL_SLOPE 2.15, PBLUC_R_SQUARED 0.14, read-out: LUCIFERASE INFECTION ASSAY - IC50): > 10 µM

SMILES | IC50 [1] [µM] | IC90 [µM] | also measured
Clc1ccccc1OCc1nnc(SCc2csc(-c3ccccc3)n2)o1 | > 10 | > 10 | –
CC(NCc1ccc(N(C)CCO)cc1)c1ccc(-c2ccccc2)cc1 (configuration not stated) | – | > 10 | IC50 (PBLUC_HILL_SLOPE 1.73, PBLUC_R_SQUARED 0.432, read-out: LUCIFERASE INFECTION ASSAY - IC50): 8 µM
CCOc1ccc(-n2c(-c3ccc(Cl)cc3)c[n+]3c2SCC3)cc1 | – | 8.41 | IC50 (HEPG2TOX_HILL_SLOPE 17.5, HEPG2TOX_R_SQUARED 0.639, PBLUC_HILL_SLOPE 3.46, PBLUC_R_SQUARED 0.768, read-out: LUCIFERASE INFECTION ASSAY - IC50): 4.45 µM
CN(C)c1cccc(-c2cnc3sc(NCCc4ccc(S(N)(=O)=O)cc4)nn23)c1 | – | > 7.46 | IC50 (FFLUC_HILL_SLOPE 1.97, FFLUC_R_SQUARED 0.664, read-out: LUCIFERASE INFECTION ASSAY - IC50): > 7.46 µM
O=C(NCCCn1cnc2ccccc21)c1ccccc1Nc1ccccc1 | – | > 10 | IC50 (PBLUC_HILL_SLOPE 3.77, PBLUC_R_SQUARED 0.592, read-out: LUCIFERASE INFECTION ASSAY - IC50): 7.09 µM
Cc1ccc(C)c(-n2c(SCCOc3ccccc3C)nnc2-c2ccccc2Cl)c1 | – | > 10 | IC50 (FFLUC_HILL_SLOPE 1.3, FFLUC_R_SQUARED 0.027, HEPG2TOX_HILL_SLOPE 7.63, HEPG2TOX_R_SQUARED 0.817, read-out: LUCIFERASE INFECTION ASSAY - IC50): > 10 µM
CCOc1ccc(CN(CC)C(=O)c2ccc(=O)[nH]c2)cc1OC | > 10 | > 10 | –
O=C(CN1CCC(Cc2ccccc2)CC1)NCc1ccc(F)cc1 | – | 4.07 | IC50 (PBLUC_HILL_SLOPE 12.9, PBLUC_R_SQUARED 0.271, read-out: LUCIFERASE INFECTION ASSAY - IC50): 3.43 µM
Cc1nn(-c2ccccc2)c(N2CCCC2)c1/C=N/Nc1ccc(S(N)(=O)=O)cc1[N+](=O)[O-] | 9.05 | > 10 | –
Cn1c(C(=O)N2CCN(C(c3ccccc3)c3ccccc3)CC2)cc2c(=O)n3ccccc3nc21 | > 10 | > 10 | –
c1ccc(-c2cc3c(Oc4ccc(-n5ccnc5)cc4)ncnc3s2)cc1 | – | > 10 | IC50 (PBLUC_HILL_SLOPE 1.81, PBLUC_R_SQUARED 0.315, read-out: LUCIFERASE INFECTION ASSAY - IC50): 6.93 µM
CCOC(=O)c1c(C)[nH]c(C(=O)C(C)OC(=O)c2c3c(nc4ccccc24)/C(=C/c2ccc(F)cc2)CCC3)c1C (configuration not stated) | – | > 10 | IC50 (HEPG2TOX_HILL_SLOPE 0.182, HEPG2TOX_R_SQUARED 0.103, read-out: LUCIFERASE INFECTION ASSAY - IC50): > 10 µM
COc1ccc(-c2nnc(SCC(=O)c3[nH]c(C)c(C(C)=O)c3C)n2C2CCCCC2C)cc1 (configuration not stated) | > 10 | > 10 | –
O=C(CO/N=C/c1ccc(OCc2ccccc2)c(OCc2ccccc2)c1)N1CCCCCC1 | – | > 10 | IC50 (PBLUC_HILL_SLOPE 29.4, PBLUC_R_SQUARED 0.303, read-out: LUCIFERASE INFECTION ASSAY - IC50): 9.83 µM
CCCc1nc2ccccc2n1CC(=O)N1N=C(c2ccc(Cl)cc2)CC1c1ccco1 (configuration not stated) | – | > 10 | IC50 (PBLUC_HILL_SLOPE 1.73, PBLUC_R_SQUARED 0.265, read-out: LUCIFERASE INFECTION ASSAY - IC50): > 10 µM
